These results are taken from patent US20220213138A1, “CYCLIC COMPOUNDS AND METHODS OF MAKING AND USING” (UNIVERSITY OF HONG KONG, priority 2019, published 2022).

The conditions of data set [1]: crosslinker bond.
Another data set concerns Caco2 cells. Put plainly: Fluorescence confocal imaging analysis of Caco2 cells. The data set is classed as cell-based. To be noted: 1 μL 10 mM peptide in 1 mL DMEM with 10% FBS, 2 hours at 37° C. How it is done:
Caco2 cell line was provided by Prof. Jiang Xia (CUHK). A431 and HT116 cell lines were from Prof. Chiming Che (HKU). Caco2, A431 cells were cultured in DMEM supplemented with 10% FBS. HT116 cells were cultured in RPMI 1640 medium supplemented with 10% FBS. All cells were cultured in a humidified incubator at 37° C. with 5% CO2 supplemented. Cell culture medium and FBS were purchased from Gibco. Hoechst 33342 and DiI were purchased from Beyotime Biotechnology. Flow cytometry tubes were purchased from BD pharmacology.
Caco2 cells were cultured with the confluence of 60% in the 35 mm glass-bottom dish overnight. 1 mL fresh DMEM with 10% FBS was added to the dish. 1 μL 10 mM cyclic peptide (Ac-CPIEDRPMK-CONH2)-Fluorescein (cCK9′-F) (SEQ ID NO:27) in DMSO was added into the medium for 2 hours at 37° C. After two hours' incubation, the supernatant was discarded and the cells were washed with PBS for three times. The cells were replenished with PBS. Hoechst 33342 (final concentration: 2.5 μg/mL) and DiI (final concentration: 5 μM) were added into PBS for 10 min at room temperature. The supernatant was discarded. The cells were washed with PBS for three times and replenished with 3% polyaldehyde for imaging. All images were captured and processed via Leica Application Suit X at ×63 oil objective (Leica).

Data set [2] concerns poorly differentiated colon carcinoma cells. Conditions: Kelly, et al., Neoplasia 2003; cited from earlier work.
Where [3] appears, read: 21-membered ring, OPA, PBS pH 7.4/DMSO.
Setting [4] is: crosslinker bond, 21-membered ring, OPA, then DMAC, PBS pH 7.4/DMSO, 2 steps.
[5] abbreviates: 24-membered ring, OPA, PBS pH 7.4/DMSO.
Where [6] appears, read: crosslinker bond, 24-membered ring, OPA, then DMAC, PBS pH 7.4/DMSO, 2 steps.
[7] abbreviates: crosslinker bond, 27-membered ring, OPA, then DMAC, PBS pH 7.4/DMSO, 2 steps.
The mark [8] stands for this setting: 27-membered ring, OPA, PBS pH 7.4/DMSO.

Read-outs that look alike come from different tables or passages of the source. Positions of bridges follow the written chain, without caps; N, C: chain ends. No end group written: not given here.

Ac-KAAACH-CONH2 returned a ring closure, conversion in data set [1] (setting [3]) of 98%.

For the substance bicyclo-(Dap-A-Hyp-C-t-A-E)-DMAC, the ring closure, yield after HPLC (crosslinker bond, 15-membered ring, 2 steps) stood at 65%.

In turn, Ac-KAAACF-CONH2 gave a ring closure, conversion in data set [1] (21-membered ring, OPA) of 98%.

Take “Phallodin analog (cyclo-(Dap-Ala-Hyp-Cys-(D)thr-Ala-Glu))”: in data set [1] (15-membered ring), the ring closure, conversion is 86.4%.

cyclo-(CNSTKNLTFAMRSSGDYGEV): the ring closure, conversion in data set [1] (setting [3]) was 89.2%. The substance further gave a ring closure, yield after HPLC (amide bond, 60-membered ring, NaNO2, MPAA, TCEP (NCL), 6 M Gn.HCl/0.2 M phosphate buffer, 0.37 mM) of 31%.

As for Ac-KAAAACF-CONH2, in data set [1] (24-membered ring, OPA), the ring closure, conversion was determined as 93%.

As for “Cyclo-(Ac-CPIEDRPMK-CONH2)-Fluorescein (Ac-CPIEDRPMK-NH2; linker (positions not given here) via OPA; also: fluorescein conjugate, site not given here) [cCK9′-F]”, in the data set on Caco2 cells, the “imaging overlap with cell membrane dye (DiI)” value is on record as “overlapped very well with cell membrane dye (DiI)”.

In turn, cyclo-(Ac-ENPECILDKHVQRVM-CONH2)-DMAC yielded a ring closure, yield after HPLC under setting [4] of 35%.

Regarding Ac-NYRWRCKN-CONH2, the ring closure, conversion in data set [1] (12-membered ring, OPA, PBS pH 7.4/DMSO) was determined as 98%.

In data set [1] (14-membered ring, OPA), NH2-AAACF-CONH2 came in with a ring closure, conversion of 98%.

Substance Ac-AKVTMTCSAS-CONH2 had a ring closure, conversion in data set [1] (setting [5]) of 99%.

Ac-KAAAACH-CONH2 showed a ring closure, conversion in data set [1] (24-membered ring, OPA, PBS pH 7.4/DMSO, 0.53 mM) of 92%.

Consider bicyclo-(CSSLDEPGRGGFSSESKV), for which the ring closure, conversion in data set [1] (15-membered ring, OPA) stood at 98%.

Consider “cyclo-(CPIEDRPMC) (disulfide 1-9 (inferred)) [CK-9]”, for which the cell targeting result in data set [2] is reported as “specifically target poorly differentiated colon carcinoma cells”.

The substance cyclo-(Ac-CDWLPK-CONH2)-DMAC displayed a ring closure, yield after HPLC under setting [6] of 31.9%.

Ac-KAAAAACF-CONH2 had a ring closure, conversion in data set [1] (27-membered ring, OPA) of 98%.

In data set [1] (36-membered ring, OPA), bicyclo-(CSQGTFTSDYSKYLDSRRAQ) showed a ring closure, conversion of 94%.

As to Ac-ENPECILDKHVQRVM-CONH2, the ring closure, conversion in data set [1] (21-membered ring, OPA) was determined as 98%; in data set [1] (setting [3]) it was 93.6%.

As for bicyclo-(CNSTKNLTFAMRSSGDYGEV), the ring closure, conversion in data set [1] (21-membered ring, OPA) came out at 90%.

For bicyclo-(CNSTKNLTFAMRSSGDYGEV)-DMAC, under setting [4], the ring closure, yield after HPLC was determined as 69%.

Regarding cyclo-(Ac-ACFALPKG-CONH2)-DMAC, the ring closure, yield after HPLC under setting [6] was determined as 48%.

cyclo-(Ac-GAQCAFLK-CONH2)-DMAC gave a ring closure, yield after HPLC under setting [4] of 38%.

Consider cyclo-(Ac-KAAAACH-CONH2)-DMAC, for which the ring closure, yield after HPLC (crosslinker bond, 24-membered ring, OPA, then DMAC, PBS pH 7.4/DMSO, 0.53 mM, 2 steps) was 34%.

Regarding Ac-CAHNLTHAK-CONH2, the ring closure, conversion in data set [1] (33-membered ring, OPA) stood at 98%.

With bicyclo-(CSQGTFTSDYSKYLDSRRAQ)-DMAC, the ring closure, yield after HPLC (crosslinker bond, 36-membered ring, OPA, then DMAC, PBS pH 7.4/DMSO, 2 steps) is 65%.

cyclo-(Ac—NYRWRCKN-CONH2)-DMAC came in with a ring closure, yield after HPLC (crosslinker bond, 12-membered ring, OPA, then DMAC, PBS pH 7.4/DMSO, 2 steps) of 32%.

Substance NH2-AAAACF-CONH2 returned a ring closure, conversion in data set [1] (17-membered ring, OPA) of 96%.

Substance cyclo-(Ac-KAAAAACH-CONH2)-DMAC showed a ring closure, yield after HPLC under setting [7] of 52.2%.

As to Ac-KAAAAACH-CONH2, in data set [1] (setting [8]), the ring closure, conversion was determined as 98%.

Turning to cyclo-(Ac-KGEAFQC-CONH2)-DMAC, under setting [7], the ring closure, yield after HPLC turned out to be 36.6%.

Substance Ac-GAQCAFLK-CONH2 displayed a ring closure, conversion in data set [1] (setting [3]) of 83.3%.

cyclo-(Ac-KAAACH-CONH2)-DMAC gave a ring closure, yield after HPLC under setting [4] of 47.3%.

Take Ac-CDWLPK-CONH2: in data set [1] (setting [5]), the ring closure, conversion is 89.1%.

For NH2-AAAAACF-CONH2, in data set [1] (20-membered ring, OPA), the ring closure, conversion is 98%.

As for Ac-KGEAFQC-CONH2, the ring closure, conversion in data set [1] (setting [8]) was found to be 90.9%.

cyclo-(CSQGTFTSDYSKYLDSRRAQ): the ring closure, conversion in data set [1] (36-membered ring, OPA, PBS pH 7.4/DMSO) came to 71.4%. This substance yielded a ring closure, yield after HPLC (amide bond, 60-membered ring, NaNO2, MPAA, TCEP (NCL), 6 M Gn.HCl/0.2 M phosphate buffer, 0.2 mM) of 71.7%.

In the case of Ac-ACFALPKG-CONH2, the ring closure, conversion in data set [1] (setting [5]) amounted to 92.5%.

In turn, bicyclo-(CSSLDEPGRGGFSSESKV)-DMAC had a ring closure, yield after HPLC (crosslinker bond, 15-membered ring, OPA, then DMAC, PBS pH 7.4/DMSO, 2 steps) of 43%.

As to cyclo-(Ac-AKVTMTCSAS-CONH2)-DMAC, the ring closure, yield after HPLC under setting [6] was 32%.

The substance Ac-CHHALTHAK-CONH2 gave a ring closure, conversion in data set [1] (33-membered ring, OPA) of 98%.

In data set [1] (30-membered ring, OPA), Ac-KAAAAAACF-CONH2 gave a ring closure, conversion of 98%.

Turning to cyclo-(CSSLDEPGRGGFSSESKV), in data set [1] (15-membered ring, OPA, PBS pH 7.4/DMSO), the ring closure, conversion is 86.9%. Further, the ring closure, yield after HPLC (amide bond, 54-membered ring, NaNO2, MPAA, TCEP (NCL), 6 M Gn.HCl/0.2 M phosphate buffer, 0.14 mM) was determined as 68.8%.
